Experimental data published in ChEMBL document CHEMBL1201862, “PubChem BioAssay data set” (2004).
Calls of active or inactive are those of the source.

Experiments:
[1] = target: T1, E3 ubiquitin-protein ligase XIAP (Homo sapiens, UniProt P98170); test: SAR analysis of Antagonists of IAP-family anti-apoptotic proteins. [Related pubchem assays (depositor defined):AID1018, AID1449, AID1513, AID1514, AID1638]
[2] = target: T1, E3 ubiquitin-protein ligase XIAP; test: SAR analysis of Antagonists of XIAP-Bir3 domain of IAP-family anti-apoptotic proteins. [Related pubchem assays (depositor defined):AID1018, AID1449, AID1513, AID1514, AID1638]
[3] = target: T2, Alkaline phosphatase, tissue-nonspecific isozyme (Homo sapiens, UniProt P05186); test: TNAP enzyme inhibition by screening hits, dose response, selectivity assay for mouse IAP inhibitor project, biochemical, human TNAP, uHTS hits (AID 488906); type: functional
T2 sequence (P05186 whole entry): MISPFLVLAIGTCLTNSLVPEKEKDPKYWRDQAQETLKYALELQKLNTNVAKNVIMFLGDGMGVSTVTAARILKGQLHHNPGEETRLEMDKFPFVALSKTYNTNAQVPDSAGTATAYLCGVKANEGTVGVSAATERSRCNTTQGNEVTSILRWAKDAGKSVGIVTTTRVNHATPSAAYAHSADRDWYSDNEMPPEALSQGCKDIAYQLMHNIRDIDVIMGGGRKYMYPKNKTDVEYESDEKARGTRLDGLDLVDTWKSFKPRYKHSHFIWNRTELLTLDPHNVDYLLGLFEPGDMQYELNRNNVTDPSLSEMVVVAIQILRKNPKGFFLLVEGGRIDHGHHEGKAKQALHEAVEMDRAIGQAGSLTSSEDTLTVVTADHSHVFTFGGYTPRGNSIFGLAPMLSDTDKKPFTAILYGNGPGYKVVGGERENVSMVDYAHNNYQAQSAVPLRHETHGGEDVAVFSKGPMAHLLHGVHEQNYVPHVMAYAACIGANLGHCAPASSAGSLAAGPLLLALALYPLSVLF

[4] = target: Intestinal-type alkaline phosphatase (Homo sapiens, UniProt P09923); test: inhibition of human intestinal alkaline phosphatase – biochemical, dose response (AID 488876); type: functional
Intestinal-type alkaline phosphatase (Homo sapiens, UniProt P09923), sequence (P09923 whole entry): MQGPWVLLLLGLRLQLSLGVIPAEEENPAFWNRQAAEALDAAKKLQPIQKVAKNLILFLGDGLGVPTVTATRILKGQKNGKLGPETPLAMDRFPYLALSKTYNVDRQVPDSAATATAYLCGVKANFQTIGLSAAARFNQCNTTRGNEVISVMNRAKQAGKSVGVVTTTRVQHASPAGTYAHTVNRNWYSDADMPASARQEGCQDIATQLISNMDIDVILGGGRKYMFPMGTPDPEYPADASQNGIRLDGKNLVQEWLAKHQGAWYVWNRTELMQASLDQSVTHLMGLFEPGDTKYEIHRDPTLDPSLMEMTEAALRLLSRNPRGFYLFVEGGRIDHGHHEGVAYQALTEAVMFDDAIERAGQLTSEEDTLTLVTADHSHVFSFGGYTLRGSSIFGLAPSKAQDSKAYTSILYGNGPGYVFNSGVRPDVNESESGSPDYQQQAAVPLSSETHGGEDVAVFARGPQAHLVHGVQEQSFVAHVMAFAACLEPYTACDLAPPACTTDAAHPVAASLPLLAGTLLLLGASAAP

[5] = target: Intestinal-type alkaline phosphatase (Mus musculus, UniProt P24822); test: PubChem AID 488785; type: functional
Intestinal-type alkaline phosphatase (Mus musculus, UniProt P24822), sequence (P24822 whole entry): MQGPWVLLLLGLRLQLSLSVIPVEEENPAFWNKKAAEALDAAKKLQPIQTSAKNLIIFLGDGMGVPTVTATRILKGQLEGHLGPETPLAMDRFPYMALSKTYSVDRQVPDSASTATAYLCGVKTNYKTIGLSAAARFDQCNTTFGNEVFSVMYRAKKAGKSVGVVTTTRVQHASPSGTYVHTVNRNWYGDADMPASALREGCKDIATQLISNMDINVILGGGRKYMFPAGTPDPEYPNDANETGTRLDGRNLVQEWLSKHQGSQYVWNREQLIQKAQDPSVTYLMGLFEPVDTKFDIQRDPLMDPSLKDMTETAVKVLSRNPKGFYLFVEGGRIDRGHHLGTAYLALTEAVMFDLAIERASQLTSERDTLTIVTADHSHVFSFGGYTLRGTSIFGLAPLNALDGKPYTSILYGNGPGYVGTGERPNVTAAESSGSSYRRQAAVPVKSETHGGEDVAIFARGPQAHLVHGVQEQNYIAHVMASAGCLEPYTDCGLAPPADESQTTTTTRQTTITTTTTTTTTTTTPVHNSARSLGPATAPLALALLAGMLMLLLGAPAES

[6] = target: T3, Histone-lysine N-methyltransferase NSD2 (Homo sapiens, UniProt O96028); type: biochemical
T3 sequence (O96028 whole entry): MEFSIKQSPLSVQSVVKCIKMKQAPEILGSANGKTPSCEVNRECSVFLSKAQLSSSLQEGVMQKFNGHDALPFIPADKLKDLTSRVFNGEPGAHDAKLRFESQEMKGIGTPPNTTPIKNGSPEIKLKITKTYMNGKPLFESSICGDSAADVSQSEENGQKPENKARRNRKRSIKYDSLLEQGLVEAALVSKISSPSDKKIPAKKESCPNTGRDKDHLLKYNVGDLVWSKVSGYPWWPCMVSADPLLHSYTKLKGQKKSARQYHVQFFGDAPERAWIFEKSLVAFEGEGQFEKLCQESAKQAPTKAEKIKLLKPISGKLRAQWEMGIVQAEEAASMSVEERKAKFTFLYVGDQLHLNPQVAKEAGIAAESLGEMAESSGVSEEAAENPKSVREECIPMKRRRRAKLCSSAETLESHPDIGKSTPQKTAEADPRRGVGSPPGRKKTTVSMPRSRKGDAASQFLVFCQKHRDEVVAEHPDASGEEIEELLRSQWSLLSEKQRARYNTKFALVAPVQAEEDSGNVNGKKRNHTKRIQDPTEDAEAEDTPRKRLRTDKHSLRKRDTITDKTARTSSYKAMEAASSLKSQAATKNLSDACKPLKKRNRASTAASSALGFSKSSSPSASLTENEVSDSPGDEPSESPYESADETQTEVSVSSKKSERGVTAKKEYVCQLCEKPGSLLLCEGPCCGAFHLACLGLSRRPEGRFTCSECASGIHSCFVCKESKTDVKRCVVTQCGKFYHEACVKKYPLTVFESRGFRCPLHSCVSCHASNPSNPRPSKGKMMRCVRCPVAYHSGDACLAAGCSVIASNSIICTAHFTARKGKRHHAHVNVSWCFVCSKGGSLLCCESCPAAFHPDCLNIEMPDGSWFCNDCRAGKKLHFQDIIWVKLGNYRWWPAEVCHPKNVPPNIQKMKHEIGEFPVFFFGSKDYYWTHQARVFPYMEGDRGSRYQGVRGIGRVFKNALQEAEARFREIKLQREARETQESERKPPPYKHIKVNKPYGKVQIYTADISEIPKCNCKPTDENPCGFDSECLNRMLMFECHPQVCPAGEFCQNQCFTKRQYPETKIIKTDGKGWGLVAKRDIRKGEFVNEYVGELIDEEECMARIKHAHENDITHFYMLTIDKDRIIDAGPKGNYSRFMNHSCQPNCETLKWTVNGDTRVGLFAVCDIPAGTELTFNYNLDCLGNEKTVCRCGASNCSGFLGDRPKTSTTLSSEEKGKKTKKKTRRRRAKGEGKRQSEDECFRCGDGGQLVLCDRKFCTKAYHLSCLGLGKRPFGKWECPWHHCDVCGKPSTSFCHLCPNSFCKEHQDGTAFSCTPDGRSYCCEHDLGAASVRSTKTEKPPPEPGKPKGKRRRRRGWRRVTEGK

[7] = target: T4, SUMO-activating enzyme (Homo sapiens, UniProt Q9UBT2); test: blockers of UBC9-mediated SUMO conjugation – biochemical, AlphaScreen, SUMOylation inhibitor project, confirmation (AID 2018); type: functional
T4 sequence (Q9UBE0 whole entry): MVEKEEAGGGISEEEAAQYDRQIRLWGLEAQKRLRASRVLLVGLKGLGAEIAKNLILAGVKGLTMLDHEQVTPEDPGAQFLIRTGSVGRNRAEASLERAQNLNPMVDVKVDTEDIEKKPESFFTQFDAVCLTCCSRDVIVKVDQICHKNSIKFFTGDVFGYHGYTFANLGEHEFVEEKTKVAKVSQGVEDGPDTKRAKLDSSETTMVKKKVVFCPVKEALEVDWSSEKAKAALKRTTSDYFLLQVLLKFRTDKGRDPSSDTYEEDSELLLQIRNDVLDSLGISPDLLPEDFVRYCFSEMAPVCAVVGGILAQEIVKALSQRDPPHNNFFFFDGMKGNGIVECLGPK
T4 sequence (Q9UBT2 whole entry): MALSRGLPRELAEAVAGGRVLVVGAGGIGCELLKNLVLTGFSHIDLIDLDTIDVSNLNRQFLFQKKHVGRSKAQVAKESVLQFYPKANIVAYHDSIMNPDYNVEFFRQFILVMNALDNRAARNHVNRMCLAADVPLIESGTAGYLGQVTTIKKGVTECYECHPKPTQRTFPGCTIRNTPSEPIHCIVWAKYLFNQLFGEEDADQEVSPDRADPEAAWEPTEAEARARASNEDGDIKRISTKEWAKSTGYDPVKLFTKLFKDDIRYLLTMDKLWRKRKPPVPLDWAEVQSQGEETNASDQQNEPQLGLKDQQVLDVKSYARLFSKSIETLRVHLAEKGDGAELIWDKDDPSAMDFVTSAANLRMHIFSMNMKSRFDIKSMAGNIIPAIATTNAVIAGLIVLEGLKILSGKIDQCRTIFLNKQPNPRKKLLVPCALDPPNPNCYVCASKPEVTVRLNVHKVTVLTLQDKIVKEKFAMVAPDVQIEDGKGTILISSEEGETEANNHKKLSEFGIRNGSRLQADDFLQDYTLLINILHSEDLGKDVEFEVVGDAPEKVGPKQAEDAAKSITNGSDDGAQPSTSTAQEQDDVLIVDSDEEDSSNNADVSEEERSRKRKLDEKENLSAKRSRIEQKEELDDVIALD

[8] = target: T4, SUMO-activating enzyme; test: blockers of SAE1/SAE2–UBC9 SUMO transfer – biochemical, HTRF, uHTS, primary screen (AID 2006); type: protein-complex assay
[9] = target: T5, Aspartyl aminopeptidase (Plasmodium falciparum 3D7, UniProt Q8I2J3); test: Counterscreen for inhibitors of M1 and M17 aminopeptidases: QFRET-based biochemical high throughput dose response assay for inhibitors of the Plasmodium falciparum M18 Aspartyl Aminopeptidase (PFM18AAP). [Related PubChem assays: 1619 (Screening assay (M17LAP inhibitors).), 1445 (Screening assay (M1AAP inhibitors).)]
T5 sequence (Q8I2J3 whole entry): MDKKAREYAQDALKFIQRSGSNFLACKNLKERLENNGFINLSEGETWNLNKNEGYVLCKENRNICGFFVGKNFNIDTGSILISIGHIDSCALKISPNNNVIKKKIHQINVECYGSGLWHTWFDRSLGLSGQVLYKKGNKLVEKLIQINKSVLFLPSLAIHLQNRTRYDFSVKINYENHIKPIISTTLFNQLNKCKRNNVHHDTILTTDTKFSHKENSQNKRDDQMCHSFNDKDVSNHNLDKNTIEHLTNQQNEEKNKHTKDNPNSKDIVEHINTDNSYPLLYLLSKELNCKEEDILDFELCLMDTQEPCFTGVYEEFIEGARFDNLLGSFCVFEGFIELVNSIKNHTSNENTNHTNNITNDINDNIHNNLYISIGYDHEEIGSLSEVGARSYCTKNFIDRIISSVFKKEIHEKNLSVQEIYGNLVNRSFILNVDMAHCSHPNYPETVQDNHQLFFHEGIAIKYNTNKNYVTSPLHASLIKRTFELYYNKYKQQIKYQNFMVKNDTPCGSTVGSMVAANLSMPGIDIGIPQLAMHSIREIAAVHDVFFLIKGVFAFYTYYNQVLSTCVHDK

[10] = target: Procathepsin L (Homo sapiens, UniProt P07711); test: CTSL1 protease inhibition – biochemical, QFRET, 1536-well, counter-screen for M1/M17 aminopeptidase inhibitor project, dose response (AID 2214)
Procathepsin L, sequence (P07711 whole entry): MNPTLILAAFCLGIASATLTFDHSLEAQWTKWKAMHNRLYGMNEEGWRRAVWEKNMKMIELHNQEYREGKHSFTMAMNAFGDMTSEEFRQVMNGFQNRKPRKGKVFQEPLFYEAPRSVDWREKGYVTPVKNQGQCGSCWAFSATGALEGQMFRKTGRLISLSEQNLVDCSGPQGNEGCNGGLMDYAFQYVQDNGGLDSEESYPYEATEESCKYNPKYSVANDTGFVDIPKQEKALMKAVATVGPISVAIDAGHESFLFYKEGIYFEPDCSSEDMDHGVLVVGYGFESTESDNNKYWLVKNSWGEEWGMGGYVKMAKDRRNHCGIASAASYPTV

[11] = target: T6, Aminopeptidase N (Plasmodium falciparum FcB1/Columbia, UniProt O96935); test: malaria alanyl aminopeptidase activity blockers – biochemical, fluorogenic H-Leu-NHMec substrate, 1536-well (AID 1445); set-up: species or system Plasmodium falciparum 3D7, 3D7
T6 sequence (O96935 whole entry): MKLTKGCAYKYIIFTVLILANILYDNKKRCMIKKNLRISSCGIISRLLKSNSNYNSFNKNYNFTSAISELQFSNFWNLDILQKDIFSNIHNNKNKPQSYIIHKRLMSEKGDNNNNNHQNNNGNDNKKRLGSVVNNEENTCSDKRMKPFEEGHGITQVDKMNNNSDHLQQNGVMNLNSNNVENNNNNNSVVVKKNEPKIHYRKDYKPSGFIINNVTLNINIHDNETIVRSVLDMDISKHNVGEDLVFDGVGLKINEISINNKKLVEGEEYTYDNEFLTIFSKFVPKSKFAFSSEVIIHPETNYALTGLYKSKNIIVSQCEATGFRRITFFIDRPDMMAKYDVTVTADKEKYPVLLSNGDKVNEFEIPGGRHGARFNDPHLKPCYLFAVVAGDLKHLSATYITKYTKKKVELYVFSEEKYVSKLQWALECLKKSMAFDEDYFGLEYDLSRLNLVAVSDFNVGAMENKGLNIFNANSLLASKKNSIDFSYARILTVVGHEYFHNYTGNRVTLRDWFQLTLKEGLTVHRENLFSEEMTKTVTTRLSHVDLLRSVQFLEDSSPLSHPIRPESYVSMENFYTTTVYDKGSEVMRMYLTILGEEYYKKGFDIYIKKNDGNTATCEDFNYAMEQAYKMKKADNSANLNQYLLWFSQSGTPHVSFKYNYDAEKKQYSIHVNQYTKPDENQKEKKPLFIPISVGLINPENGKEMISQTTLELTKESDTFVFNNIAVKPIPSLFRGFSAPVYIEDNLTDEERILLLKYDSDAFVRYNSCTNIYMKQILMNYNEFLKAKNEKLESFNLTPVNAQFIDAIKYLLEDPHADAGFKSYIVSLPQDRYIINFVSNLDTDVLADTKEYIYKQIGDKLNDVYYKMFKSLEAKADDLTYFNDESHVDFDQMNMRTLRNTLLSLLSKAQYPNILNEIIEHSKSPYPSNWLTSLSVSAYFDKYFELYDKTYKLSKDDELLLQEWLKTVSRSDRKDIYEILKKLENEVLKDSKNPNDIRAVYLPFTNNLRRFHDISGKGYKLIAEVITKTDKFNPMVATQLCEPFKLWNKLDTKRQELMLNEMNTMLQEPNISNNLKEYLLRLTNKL

[12] = target: Genome polyprotein (dengue virus type 2, UniProt P29990); test: flavivirus cap methylation enzyme inhibition – biochemical, confirmation dose response, primary screen (AID 588689); type: functional
[13] = MIN6 cell viability loss – mouse insulinoma, cytotoxicity control, dose response (AID 2122); type: functional;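 note: confirmatory high-throughput counterscreen run to flag cytotoxic compounds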
[14] = decrease of insulin promoter-GFP reporter – imaging, high-content screening, mouse beta cells (AID 1628); type: functional; conditions: MIN6
[15] = target: Nonstructural protein 1 (Influenza A virus, UniProt Q194T2); type: functional, Influenza A virus (A/California/07/2009(H1N1))
Nonstructural protein 1, sequence (Q194T2 whole entry): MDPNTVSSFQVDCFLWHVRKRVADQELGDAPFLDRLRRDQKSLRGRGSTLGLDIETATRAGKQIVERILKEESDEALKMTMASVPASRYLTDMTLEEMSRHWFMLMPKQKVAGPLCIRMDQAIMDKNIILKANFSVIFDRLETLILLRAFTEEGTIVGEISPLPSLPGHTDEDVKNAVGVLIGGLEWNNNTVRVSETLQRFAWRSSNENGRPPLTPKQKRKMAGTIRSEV

[16] = cells; type: functional, cell-based
[17] = cells; type: functional, cell-based; remark: listed apart in the source
[18] = target: Cytochrome P450 3A4 (Homo sapiens, UniProt P08684);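 note: CYP3A4 tested as one member of a cytochrome P450 panel screen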
Cytochrome P450 3A4, sequence (P08684 whole entry): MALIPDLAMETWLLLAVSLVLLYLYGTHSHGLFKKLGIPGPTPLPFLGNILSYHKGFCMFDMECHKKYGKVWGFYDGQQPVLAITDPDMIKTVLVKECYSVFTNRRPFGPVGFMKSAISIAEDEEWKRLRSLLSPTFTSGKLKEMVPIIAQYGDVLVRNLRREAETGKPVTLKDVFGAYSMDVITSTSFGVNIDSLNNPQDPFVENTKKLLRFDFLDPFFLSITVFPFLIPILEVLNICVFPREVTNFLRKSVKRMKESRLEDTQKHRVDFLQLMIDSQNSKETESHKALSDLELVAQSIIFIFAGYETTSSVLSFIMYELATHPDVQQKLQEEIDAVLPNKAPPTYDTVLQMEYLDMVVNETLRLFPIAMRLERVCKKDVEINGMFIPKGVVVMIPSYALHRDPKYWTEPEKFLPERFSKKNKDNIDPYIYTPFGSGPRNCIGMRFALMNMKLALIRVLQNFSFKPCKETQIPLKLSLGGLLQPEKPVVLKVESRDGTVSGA

[19] = test system: Escherichia coli; test: microbe, parasite or virus in culture
[20] = target: Potassium voltage-gated channel subfamily KQT member 2 (Rattus norvegicus, UniProt O88943); test: rat KCNQ2 current potentiators – automated patch clamp, KCNQ2-CHO cells, SAR follow-up (AID 493113); type: functional
Potassium voltage-gated channel subfamily KQT member 2, sequence (O88943 whole entry): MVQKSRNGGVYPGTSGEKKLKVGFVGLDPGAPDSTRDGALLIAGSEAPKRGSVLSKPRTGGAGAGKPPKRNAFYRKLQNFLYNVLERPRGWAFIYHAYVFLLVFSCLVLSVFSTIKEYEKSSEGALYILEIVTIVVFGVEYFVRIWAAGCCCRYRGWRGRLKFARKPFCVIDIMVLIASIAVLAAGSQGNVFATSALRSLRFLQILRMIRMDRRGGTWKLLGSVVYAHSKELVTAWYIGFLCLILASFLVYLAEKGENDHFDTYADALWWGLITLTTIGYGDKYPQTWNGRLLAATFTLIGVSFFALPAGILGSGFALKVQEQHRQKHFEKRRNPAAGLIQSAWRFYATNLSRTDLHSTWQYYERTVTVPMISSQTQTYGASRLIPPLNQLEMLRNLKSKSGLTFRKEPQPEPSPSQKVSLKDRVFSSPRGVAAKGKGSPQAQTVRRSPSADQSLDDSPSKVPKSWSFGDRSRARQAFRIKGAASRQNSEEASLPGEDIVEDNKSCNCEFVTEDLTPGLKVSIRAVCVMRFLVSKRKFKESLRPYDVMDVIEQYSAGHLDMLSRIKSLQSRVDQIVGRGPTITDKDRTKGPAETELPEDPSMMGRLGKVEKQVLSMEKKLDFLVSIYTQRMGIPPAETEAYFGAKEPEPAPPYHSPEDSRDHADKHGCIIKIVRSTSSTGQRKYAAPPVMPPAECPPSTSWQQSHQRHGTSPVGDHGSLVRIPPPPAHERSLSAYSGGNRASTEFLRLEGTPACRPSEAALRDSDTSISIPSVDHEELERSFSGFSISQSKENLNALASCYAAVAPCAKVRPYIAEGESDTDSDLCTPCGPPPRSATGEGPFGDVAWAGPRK

T1 sequence (P98170 whole entry, the tested form may be a part): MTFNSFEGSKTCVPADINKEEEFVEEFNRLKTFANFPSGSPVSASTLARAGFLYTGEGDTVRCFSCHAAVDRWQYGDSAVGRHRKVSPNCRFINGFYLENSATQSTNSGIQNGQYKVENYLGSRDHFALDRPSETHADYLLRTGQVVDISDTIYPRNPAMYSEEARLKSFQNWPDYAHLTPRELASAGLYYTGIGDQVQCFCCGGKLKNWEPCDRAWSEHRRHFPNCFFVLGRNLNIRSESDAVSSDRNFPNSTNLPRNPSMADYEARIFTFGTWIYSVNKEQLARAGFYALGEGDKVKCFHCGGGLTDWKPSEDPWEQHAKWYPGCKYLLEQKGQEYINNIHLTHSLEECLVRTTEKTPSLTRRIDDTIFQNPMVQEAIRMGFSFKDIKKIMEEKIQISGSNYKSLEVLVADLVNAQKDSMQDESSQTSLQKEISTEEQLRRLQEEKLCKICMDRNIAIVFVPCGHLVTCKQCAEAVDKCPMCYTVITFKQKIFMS

SMILES: CC(C)[C@H](NC(=O)[C@H](C)N)C(=O)N[C@@H](C)C(=O)Nc1cccc2ccccc12
- IC50 [1]: 1.8 µM (active)
- IC50 [2]: 103 µM (active)

SMILES: O=C(CSc1nc2nn(-c3ccccc3)c(=O)c-2c2n1CCCCC2)c1ccc(O)c(O)c1
- IC50 [3]: > 100 µM (inactive)
- IC50 [4]: > 100 µM (inactive)
- IC50 [5]: 9.04 µM (active)
- AC50 [6]: 2.62 µM (active)

SMILES: CC(/C=C1\SC(=S)N(C(C(=O)O)c2ccccc2)C1=O)=C\c1ccccc1 (stereo not given)
- IC50 [7]: 10.9 µM (active)
- IC50 [8]: 26.8 µM (active)
- IC50 [9]: > 73.5 µM (not active)
- IC50 [10]: > 59.6 µM (not active)
- IC50 [11]: 12.4 µM (active)
- IC50 [12]: 38.5 µM (active)

SMILES: CN[C@@H](C)C(=O)N[C@H](C(=O)N[C@@H](C)C(=O)Nc1cccc2ncccc12)C(C)C
- IC50 [1]: > 100 µM (inactive)
- IC50 [2]: > 100 µM (inactive)

SMILES: c1ccc(-c2ccccc2OCCOCCN2CCc3ccccc3C2)cc1
- IC50 [13]: 3.85 µM (active)
- IC50 [14]: 2.55 µM (active)

SMILES: Cc1cc(NC(c2cccnc2)c2ccc3cccnc3c2O)no1 (stereo not given)
- IC50 [15]: 7.09 µM (active)
- IC50 [13]: 3.65 µM (active)
- EC50 [16]: > 350 µM (not active)
- EC50 [17]: 11.9 µM (active)
- IC50 [14]: 3.53 µM (active)

SMILES: O=C(c1ccccc1)c1ccc(OCC(O)CN2CCN(Cc3ccccc3)CC2)cc1 (stereo not given)
- AC50 [18]: inconclusive

SMILES: COC(=O)CN1C(=O)N/C(=C/c2ccccc2OC)C1=O
- AC50 [19]: 60.7 µM (active)

SMILES: Cc1cccc(NC(=O)C2CC3CCC2C3)c1C (stereo not given)
- EC50 [20]: 1 µM (active)

SMILES: Cc1ccc(NC(=O)C2CC3CCC2C3)cc1 (stereo not given)
- EC50 [20]: 0.75 µM (active)
